The text below walks through data of ChEMBL document CHEMBL4420076, “Amylin and calcitonin receptor agonist” (2017).

The target of series [1] is T1, Amylin receptor AMY3; CALCR/RAMP3 (Homo sapiens, UniProt O60896+P30988).
T1 sequence (P30988 whole entry): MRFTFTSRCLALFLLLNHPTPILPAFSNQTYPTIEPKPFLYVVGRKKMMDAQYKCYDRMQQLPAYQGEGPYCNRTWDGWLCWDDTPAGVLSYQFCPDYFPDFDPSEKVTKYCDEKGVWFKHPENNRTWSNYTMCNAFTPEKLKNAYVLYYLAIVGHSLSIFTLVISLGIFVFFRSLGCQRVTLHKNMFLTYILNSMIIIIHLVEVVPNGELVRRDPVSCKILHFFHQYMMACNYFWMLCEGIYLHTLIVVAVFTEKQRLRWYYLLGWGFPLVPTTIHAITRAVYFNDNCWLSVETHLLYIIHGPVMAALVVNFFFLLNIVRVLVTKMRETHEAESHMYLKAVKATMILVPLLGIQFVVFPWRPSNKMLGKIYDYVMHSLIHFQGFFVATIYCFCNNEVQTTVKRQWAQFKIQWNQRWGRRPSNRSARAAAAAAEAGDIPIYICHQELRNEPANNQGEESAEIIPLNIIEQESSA
T1 sequence (O60896 whole entry): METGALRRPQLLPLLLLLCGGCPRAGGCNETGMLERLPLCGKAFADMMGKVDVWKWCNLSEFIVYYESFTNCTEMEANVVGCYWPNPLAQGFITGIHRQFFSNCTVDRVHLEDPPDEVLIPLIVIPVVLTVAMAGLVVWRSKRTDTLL
In words: Agonist activity at human amylin receptor expressed in BHK570 cells co-expressing RAMP3 assessed as increase in intracellular cAMP concentration incubated for 3 hrs in absence of albumin by CRE luciferase reporter gene assay. It is filed as functional, cell-based. Background: In a reporter assay the amount or activity of a reporter protein is the signal.

The nature of series [2]: Solubility in 100 mM glycylglycine buffer at pH 3.0 incubated for 18 hrs by UPLC analysis. It is filed as physicochemical.
A short description of series [3]: Solubility in 100 mM bistrispropane buffer at pH 6.0 incubated for 18 hrs by UPLC analysis. It is filed as physicochemical.
The nature of series [4]: Solubility in 100 mM bistrispropane buffer at pH 6.5 incubated for 18 hrs by UPLC analysis. It is filed as physicochemical.
The nature of series [5]: Solubility in 100 mM bistrispropane buffer at pH 7.0 incubated for 18 hrs by UPLC analysis. It is filed as physicochemical.
A short description of series [6]: Solubility in 100 mM bistrispropane buffer at pH 7.5 incubated for 18 hrs by UPLC analysis. It is filed as physicochemical.
A short description of series [7]: Solubility in 100 mM bistrispropane buffer at pH 8.0 incubated for 18 hrs by UPLC analysis. The class given is physicochemical.
The target in series [8] is T1, Amylin receptor AMY3; CALCR/RAMP3. In words: Displacement of [125I]-labeled rat amylin from human amylin receptor expressed in BHK tkts13 whole cells co-expressing RAMP3 incubated for 60 mins by scintillation proximity assay. It is filed as cell-based. (Loss of bound radioactivity is the signal in a displacement assay; it reports binding, not function.)
Another series has as its target T2, Calcitonin receptor (Homo sapiens, UniProt P30988).
T2 sequence (P30988 whole entry): T1 sequence (P30988 whole entry)
Briefly: Agonist activity at human calcitonin receptor expressed in BHK570 cells assessed as increase in intracellular cAMP concentration incubated for 3 hrs in absence of albumin by CRE luciferase reporter gene assay. It is filed as functional, cell-based.

Series [9] can be described thus: Solubility in 100 mM glycylglycine buffer at pH 5.0 incubated for 18 hrs by UPLC analysis. The class given is physicochemical.

Structures are written as SMILES. Peptide text beside a SMILES is read from it. * marks the point of attachment. C18 diacid = O=C(O)CCCCCCCCCCCCCCCCC(=O)*

In the case of `CC[C@H](C)[C@H](NC(=O)[C@H](CCC(=O)O)NC(=O)[C@H](CO)NC(=O)[C@H](C)NC(=O)[C@H](CCC(=O)O)NC(=O)CCCCCCCCCCCCCCCCC(=O)O)C(=O)N[C@@H](CO)C(=O)N[C@H](C(=O)N[C@@H](C)C(=O)N[C@@H](C)C(=O)N[C@@H](CC(C)C)C(=O)NCC(=O)N[C@@H](CCCNC(=N)N)C(=O)N[C@@H](CC(C)C)C(=O)N[C@@H](CO)C(=O)N[C@@H](C)C(=O)N[C@@H](CCC(=O)O)C(=O)N[C@@H](CC(C)C)C(=O)N[C@@H](Cc1cnc[nH]1)C(=O)N[C@@H](CCC(=O)O)C(=O)N[C@@H](CC(C)C)C(=O)N[C@@H](C)C(=O)N[C@H](C(=O)N[C@@H](CC(C)C)C(=O)N1CCC[C@H]1C(=O)N[C@@H](CCCNC(=N)N)C(=O)N[C@H](C(=O)N[C@@H](CCC(=O)O)C(=O)N[C@H](C(=O)NCC(=O)N1CCC[C@H]1C(=O)N[C@@H](CCC(=O)O)C(=O)N[C@@H](CO)C(=O)N1CCC[C@H]1C(N)=O)[C@@H](C)O)[C@@H](C)O)[C@@H](C)O)[C@@H](C)O` ({C18 diacid}-EASEISTAALGRLSAELHELATLPRTETGPESP-NH2), the EC50 (in general, the midpoint of the concentration-response curve) in series [1] was 0.007 nM. Besides, the solubility at 18 h in series [2], in series [3], in [4], in series [5], in [6] and in series [7] was not below 200 µM throughout. Also, the IC50 (commonly the concentration needed to halve the response being measured) in series [8] is 0.429 nM.
For `CC[C@H](C)[C@H](NC(=O)[C@H](C)NC(=O)[C@@H](NC(=O)[C@H](CO)NC(=O)[C@H](CC(C)C)NC(=O)[C@H](CCC(=O)O)NC(=O)[C@H](CO)NC(=O)[C@H](C)NC(=O)[C@H](CCC(=O)O)NC(=O)CCCCCCCCCCCCCCCCC(=O)O)[C@@H](C)O)C(=O)N[C@@H](CC(C)C)C(=O)NCC(=O)N[C@@H](CCCNC(=N)N)C(=O)N[C@@H](CC(C)C)C(=O)N[C@@H](CO)C(=O)N[C@@H](C)C(=O)N[C@@H](CCC(=O)O)C(=O)N[C@@H](CC(C)C)C(=O)N[C@@H](Cc1cnc[nH]1)C(=O)N[C@@H](CCC(=O)O)C(=O)N[C@@H](CC(C)C)C(=O)N[C@@H](C)C(=O)N[C@H](C(=O)N[C@@H](CC(C)C)C(=O)N1CCC[C@H]1C(=O)N[C@@H](CCCNC(=N)N)C(=O)N[C@H](C(=O)N[C@@H](CCC(=O)O)C(=O)N[C@H](C(=O)NCC(=O)N1CCC[C@H]1C(=O)N[C@@H](CCC(=O)O)C(=O)N[C@@H](CO)C(=O)N1CCC[C@H]1C(N)=O)[C@@H](C)O)[C@@H](C)O)[C@@H](C)O` ({C18 diacid}-EASELSTAILGRLSAELHELATLPRTETGPESP-NH2), the figures for the EC50 (in [1]; at Calcitonin receptor) were 0.016 nM and 0.005 nM, respectively. Further, the solubility at 18 h in series [2], in [3], in series [9], in [4], in series [5] and in series [6] was not below 200 µM in each case. The solubility (in general, how much of the substance goes into solution per volume) at 18 h in [7] was not below 200 µM. For the same compound, the IC50 in series [8] was 0.417 nM.
As for `CC(C)C[C@H](NC(=O)[C@H](C)NC(=O)[C@H](C)NC(=O)[C@@H](NC(=O)[C@H](CO)NC(=O)[C@H](CC(C)C)NC(=O)[C@H](CCC(=O)O)NC(=O)[C@H](CO)NC(=O)[C@H](C)NC(=O)[C@H](CCC(=O)O)NC(=O)CCCCCCCCCCCCCCCCC(=O)O)[C@@H](C)O)C(=O)NCC(=O)N[C@@H](CCCNC(=N)N)C(=O)N[C@@H](CC(C)C)C(=O)N[C@@H](CO)C(=O)N[C@@H](C)C(=O)N[C@@H](CCC(=O)O)C(=O)N[C@@H](CC(C)C)C(=O)N[C@@H](Cc1cnc[nH]1)C(=O)N[C@@H](CCC(=O)O)C(=O)N[C@@H](CC(C)C)C(=O)N[C@@H](C)C(=O)N[C@H](C(=O)N[C@@H](CC(C)C)C(=O)N1CCC[C@H]1C(=O)N[C@@H](CCCNC(=N)N)C(=O)N[C@H](C(=O)N[C@@H](CCC(=O)O)C(=O)N[C@H](C(=O)NCC(=O)N1CCC[C@H]1C(=O)N[C@@H](CCC(=O)O)C(=O)N[C@@H](CO)C(=O)N1CCC[C@H]1C(=O)O)[C@@H](C)O)[C@@H](C)O)[C@@H](C)O` ({C18 diacid}-EASELSTAALGRLSAELHELATLPRTETGPESP-OH), the EC50 in series [1] was 0.481 nM; on Calcitonin receptor it was 0.045 nM. In addition, the IC50 in series [8] was 298 nM.
For the compound `CC(C)C[C@H](NC(=O)[C@H](CCC(=O)O)NC(=O)[C@H](Cc1cnc[nH]1)NC(=O)[C@H](CC(C)C)NC(=O)[C@H](CCC(=O)O)NC(=O)[C@H](C)NC(=O)[C@H](CO)NC(=O)[C@H](CC(C)C)NC(=O)[C@H](CCCNC(=N)N)NC(=O)CNC(=O)[C@H](CC(C)C)NC(=O)[C@@H](NC(=O)[C@H](C)NC(=O)[C@@H](NC(=O)[C@H](CO)NC(=O)[C@@H](NC(=O)[C@H](CCC(=O)O)NC(=O)[C@H](CO)NC(=O)[C@H](C)NC(=O)[C@H](CCC(=O)O)NC(=O)CCCCCCCCCCCCCCCCC(=O)O)C(C)C)[C@@H](C)O)C(C)C)C(=O)N[C@@H](C)C(=O)N[C@H](C(=O)N[C@@H](CC(C)C)C(=O)N1CCC[C@H]1C(=O)N[C@@H](CCCNC(=N)N)C(=O)N[C@H](C(=O)N[C@@H](CCC(=O)O)C(=O)N[C@H](C(=O)NCC(=O)N1CCC[C@H]1C(=O)N[C@@H](CCC(=O)O)C(=O)N[C@@H](CO)C(=O)N1CCC[C@H]1C(N)=O)[C@@H](C)O)[C@@H](C)O)[C@@H](C)O` ({C18 diacid}-EASEVSTAVLGRLSAELHELATLPRTETGPESP-NH2), the figures for the EC50 (in series [1]; at Calcitonin receptor) were 0.02 nM and 0.014 nM, respectively. The solubility at 18 h in series [2], in series [3], in series [4], in series [5], in series [6] and in series [7] was not below 200 µM in each case. Also, the IC50 in [8] was 0.824 nM.
For `CC[C@H](C)[C@H](NC(=O)[C@H](C)NC(=O)[C@@H](NC(=O)[C@H](CO)NC(=O)[C@@H](NC(=O)[C@H](CCC(=O)O)NC(=O)[C@H](CO)NC(=O)[C@H](C)NC(=O)[C@H](CCC(=O)O)NC(=O)CCCCCCCCCCCCCCCCC(=O)O)[C@@H](C)CC)[C@@H](C)O)C(=O)N[C@H](C(=O)NCC(=O)N[C@@H](CCCNC(=N)N)C(=O)N[C@@H](CC(C)C)C(=O)N[C@@H](CO)C(=O)N[C@@H](C)C(=O)N[C@@H](CCC(=O)O)C(=O)N[C@@H](CC(C)C)C(=O)N[C@@H](Cc1cnc[nH]1)C(=O)N[C@@H](CCC(=O)O)C(=O)N[C@H](C(=O)N[C@@H](C)C(=O)N[C@H](C(=O)N[C@@H](CC(C)C)C(=O)N1CCC[C@H]1C(=O)N[C@@H](CCCNC(=N)N)C(=O)N[C@H](C(=O)N[C@@H](CCC(=O)O)C(=O)N[C@H](C(=O)NCC(=O)N1CCC[C@H]1C(=O)N[C@@H](CCC(=O)O)C(=O)N[C@@H](CO)C(=O)N1CCC[C@H]1C(N)=O)[C@@H](C)O)[C@@H](C)O)[C@@H](C)O)[C@@H](C)CC)[C@@H](C)CC` ({C18 diacid}-EASEISTAIIGRLSAELHEIATLPRTETGPESP-NH2), the EC50 in [1] was 0.01 nM; on Calcitonin receptor, 0.006 nM. The solubility at 18 h in series [2], in [3], in series [4], in series [5], in series [6] and in series [7] was not below 200 µM each time. Also, the IC50 in series [8] was 0.998 nM.
